# In EP4389886A1, “LACTASE ENZYMES AND METHOD OF PRODUCING A MILK-BASED PRODUCT” (Novozymes A/S, priority 2022, dated 2024):
# Like-named read-outs stand apart in the source and are kept apart here.
# Experiments:
# [1] = test system: Lactozym® Pure (lactase, Novozymes A/S); experiment: Lactose turn-over per enzyme molecule in milk at 5°C; format: biochemical
# Procedure: (§1) In a preferred embodiment, the enzyme having lactase activity has an initial lactose turn-over of at least 10 per second per enzyme molecule in milk at 5°C. The initial lactose turn-over may be determined, e.g., when 0-10% of the lactose has been hydrolyzed. The skilled person will know how to determine the initial lactose turn-over per enzyme molecule. For example, it can be a direct measurement of lactose using HPLC or indirect using a glucose detection method.
# [2] = test system: Saphera® (lactase, Novozymes A/S); experiment: as above; format: biochemical
# Procedure: as §1
# [3] = test system: experimental Bifidobacterium lactase; conditions: substrate lactose, cited from earlier work
# [4] = initial rate (4.7% to 4.23% lactose)
smiles,measurement,setting,value
OC[C@H]1O[C@@H](O[C@H]2[C@H](O)[C@@H](O)C(O)O[C@@H]2CO)[C@H](O)[C@@H](O)[C@H]1O (some centres unmarked) [lactose],average lactose turn-over from initial lactose of 4.7% to 0.01% residual lactose,[1],about 5 sec^-1
same,average lactose turn-over from initial lactose of 4.7% to 0.1% residual lactose,[1],about 9 sec^-1
same,initial lactose turn-over per enzyme molecule,[1]; [4],about 36 sec^-1
same,average lactose turn-over from initial lactose of 4.7% to 0.01% residual lactose,[2],about 18 sec^-1
same,average lactose turn-over from initial lactose of 4.7% to 0.1% residual lactose,[2],about 23 sec^-1
same,initial lactose turn-over per enzyme molecule,[2]; [4],about 89 sec^-1
same,Km,[3]; at 5°C,8 mM
same,Km,[3]; at 37°C,13 mM
